Laboratory results published in patent US20260022142A1, “MACROCYCLIC IMMUNOMODULATORS” (Bristol-Myers Squibb Company, priority 2022, published 2026).
Numbered stars: 1 amine (or outer) side, 2 acyl side, 3 side chain; on linkers, the order of the positions; unused ones are H or OH. Bridge positions count the residues as written; N and C are the ends. Square brackets hold non-standard residues; d marks the D form. Peptide text beside a SMILES is read from it. * marks the point of attachment. ξ: configuration not given here. Phe(4-COOH) = N[C@@H](Cc1ccc(C(=O)O)cc1)C(=O)O; Bip = N[C@@H](Cc1ccc(-c2ccccc2)cc1)C(=O)O; Phe(3-Me) = Cc1cccc(C[C@H](N)C(=O)O)c1; γGlu = O=C(O)[C@H](CCC(=O)[*:2])N[*:1]; NH(CH2)12COOH = O=C(O)CCCCCCCCCCCCN*; Val(3-OH) = CC(C)(O)[C@H](N)C(=O)O; hArg = N=C(N)NCCCC[C@H](N)C(=O)O; Cha = N[C@@H](CC1CCCCC1)C(=O)O; Cit = NC(=O)NCCC[C@H](N)C(=O)O; Ile(3ξ) = CCC(C)[C@H](N)C(=O)O; Carboxymethyl = O=C(O)C*; Nle = CCCC[C@H](N)C(=O)O; Orn = NCCC[C@H](N)C(=O)O; Aun = NCCCCCCCCCCC(=O)O; Dab = NCC[C@H](N)C(=O)O; Dap = NC[C@H](N)C(=O)O; AEEA = NCCOCCOCC(=O)O

These molecules were tested against T1, PD-1/PD-L1 interaction (PE-labeled human PD-L1-Ig binding to Jurkat cell line over-expressing human PD-1) (Homo sapiens, UniProt Q15116) (assay: Jurkat-PD-1 Cell Binding High-Content Screening Assay (CBA)). Details: Jurkat cell line over-expressing human PD-1; PE-labeled PD-L1-Ig 20 nM final; read-out: Jurkat hPD1-PDL1 IC50.
T1 construct: expressed in transfected cells; host or cells: Jurkat
T1 sequence (Q15116 25-288): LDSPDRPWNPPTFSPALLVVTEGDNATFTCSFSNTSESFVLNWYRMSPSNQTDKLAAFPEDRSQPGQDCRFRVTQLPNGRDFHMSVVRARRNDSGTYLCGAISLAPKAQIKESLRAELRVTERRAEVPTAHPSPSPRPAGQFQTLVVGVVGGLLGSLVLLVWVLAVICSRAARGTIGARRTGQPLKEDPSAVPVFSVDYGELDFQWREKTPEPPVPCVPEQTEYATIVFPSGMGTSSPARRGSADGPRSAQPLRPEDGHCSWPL
Format: cell-based
Procedure, shortened: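 Jurkat cells stably over-expressing human PD-1 were seeded in DMEM with 10% fetal calf serum and pre-incubated with compound for 2 h at 37° C. PE-labeled human PD-L1-Ig was then added at 20 nM final for 1 hour, after which cells were fixed with paraformaldehyde, Hoechst-stained and imaged by high-content microscopy.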

Row | SMILES | IC50 [nM]
1 | CCC(C)[C@@H]1NC(=O)[C@H](Cc2ccc(-c3ccccc3)cc2)NC(=O)[C@H](C(C)C)NC(=O)[C@H](Cc2cccc(C)c2)NC(=O)[C@H](CC(=O)O)NC(=O)[C@H](Cc2ccc(OCC(=O)O)cc2)NC(=O)[C@H](C(C)O)NC(=O)CSC[C@@H](C(=O)N[C@H](CCN)C(=O)NCCCCCCCCCCC(=O)O)NC(=O)[C@H](C(C)O)NC(=O)[C@H](C(C)C)NC(=O)[C@H](CC2CCCCC2)NC(=O)[C@H](CCN)NC(=O)[C@@H](CC(C)C)NC(=O)[C@H](CCCN)NC1=O (stereo partly shown) [Compound 3091] | 26.9
2 | CCCC[C@@H]1NC(=O)CSC[C@@H](C(=O)N[C@@H](CCN)C(=O)NCCOCCOCC(=O)NCCCCCCCCCCCCC(=O)O)NC(=O)[C@H](CO)NC(=O)[C@H](C(C)(C)O)NC(=O)[C@H](CC2CCCCC2)NC(=O)[C@H](CCN)NC(=O)[C@@H](CC(C)C)NC(=O)[C@H](CCCN)NC(=O)[C@H](Cc2ccc(C(=O)O)cc2)NC(=O)[C@H](Cc2ccc(-c3ccccc3)cc2)NC(=O)[C@H](Cc2ccc(C(=O)O)cc2)NC(=O)[C@H](Cc2cccc(C)c2)NC(=O)[C@H](CC(=O)O)NC(=O)[C@H](Cc2ccc(OCC(=O)O)cc2)NC1=O [Compound 3841] ({CH2CO}-[Nle]Y(Carboxymethyl)D[Phe(3-Me)][Phe(4-COOH)][Bip][Phe(4-COOH)][Orn][dL][Dab][Cha][Val(3-OH)]SC[Dab][AEEA]-{NH(CH2)12COOH}; thioether N-14) | 34.1
3 | Cc1cccc(C[C@@H]2NC(=O)[C@H](CC(=O)O)NC(=O)[C@H](Cc3ccc(OCC(=O)O)cc3)NC(=O)[C@H](CCCNC(=N)N)NC(=O)CSC[C@@H](C(=O)N[C@@H](CCCCN)C(=O)NCCCCCCCCCCC(=O)O)NC(=O)[C@H](CCCN)NC(=O)[C@H](C(C)C)NC(=O)[C@H](CC3CCCCC3)NC(=O)[C@H](CCN)NC(=O)[C@@H](CC(C)C)NC(=O)[C@H](CCN)NC(=O)[C@H](CCCNC(N)=O)NC(=O)[C@H](Cc3ccc(-c4ccccc4)cc3)NC(=O)[C@H](C(C)C)NC2=O)c1 [Compound 2805] ({CH2CO}-RY(Carboxymethyl)D[Phe(3-Me)]V[Bip][Cit][Dab][dL][Dab][Cha]V[Orn]CK[Aun]-OH; thioether N-14) | 9.9
4 | CC(C)C[C@H]1NC(=O)[C@H](CCCN)NC(=O)[C@H](C(C)C)NC(=O)[C@H](Cc2ccc(-c3ccccc3)cc2)NC(=O)[C@H](C(C)C)NC(=O)[C@H](Cc2c[nH]c3ccccc23)NC(=O)[C@H](CC(=O)O)NC(=O)[C@H](Cc2ccc(OCC(=O)O)cc2)NC(=O)[C@H](CCCNC(=N)N)NC(=O)CSC[C@@H](C(=O)NCC(=O)NCCOCCOCC(=O)N[C@@H](CCCN)C(=O)NCCCCCCCCCCC(=O)O)NC(=O)[C@H](CN)NC(=O)[C@H](C(C)C)NC(=O)[C@H](CC2CCCCC2)NC(=O)[C@H](CCN)NC1=O [Compound 3238] ({CH2CO}-RY(Carboxymethyl)DWV[Bip]V[Orn][dL][Dab][Cha]V[Dap]CG[AEEA][Orn][Aun]-OH; thioether N-14) | 11.7
5 | CCC(C)[C@@H]1NC(=O)[C@H](Cc2ccc(-c3ccccc3)cc2)NC(=O)[C@H](CC(C)C)NC(=O)[C@H](Cc2cccc(C)c2)NC(=O)[C@H](CC(=O)O)NC(=O)[C@H](Cc2ccc(OCC(=O)O)cc2)NC(=O)[C@H](Cc2ccc(OCC(=O)O)cc2)NC(=O)CSC[C@@H](C(=O)NCCOCCOCC(=O)N[C@@H](CCC(=O)NCCCCCCCCCCC(=O)O)C(=O)O)NC(=O)[C@H](CO)NC(=O)[C@H](C(C)C)NC(=O)[C@H](CC(C)C)NC(=O)[C@H](CCN)NC(=O)[C@@H](CC(C)C)NC(=O)[C@H](CCCN)NC1=O (stereo partly drawn) [Compound 3085] ({CH2CO}-Y(Carboxymethyl)Y(Carboxymethyl)D[Phe(3-Me)]L[Bip][Ile(3ξ)][Orn][dL][Dab]LVSC[AEEA][γGlu][Aun]-OH; thioether N-14) | 12
6 | Cc1cccc(C[C@@H]2NC(=O)[C@H](CC(=O)O)NC(=O)[C@H](Cc3ccc(OCC(=O)O)cc3)NC(=O)[C@H](CCCCNC(=N)N)NC(=O)CSC[C@@H](C(=O)N[C@@H](CCN)C(=O)NCCOCCOCC(=O)NCCCCCCCCCCC(=O)O)NC(=O)[C@H](CCCN)NC(=O)[C@H](C(C)C)NC(=O)[C@H](CC3CCCCC3)NC(=O)[C@H](CCN)NC(=O)[C@@H](CC(C)C)NC(=O)[C@H](CN)NC(=O)[C@H](C(C)C)NC(=O)[C@H](Cc3ccc(-c4ccccc4)cc3)NC(=O)[C@H](C(C)C)NC2=O)c1 [Compound 3244] ({CH2CO}-[hArg]Y(Carboxymethyl)D[Phe(3-Me)]V[Bip]V[Dap][dL][Dab][Cha]V[Orn]C[Dab][AEEA][Aun]-OH; thioether N-14) | 10.9
7 | CC(C)C[C@H]1NC(=O)[C@H](CCCCN)NC(=O)[C@H](C(C)C)NC(=O)[C@H](Cc2ccc(-c3ccccc3)cc2)NC(=O)[C@H](C(C)C)NC(=O)[C@H](Cc2c[nH]c3ccccc23)NC(=O)[C@H](CC(=O)O)NC(=O)[C@H](Cc2ccc(OCC(=O)O)cc2)NC(=O)[C@H](CCCCNC(=N)N)NC(=O)CSC[C@@H](C(=O)NCCOCCOCC(=O)N[C@@H](CCCCN)C(=O)NCCCCCCCCCCC(=O)O)NC(=O)[C@H](CO)NC(=O)[C@H](C(C)C)NC(=O)[C@H](CC2CCCCC2)NC(=O)[C@H](CC(N)=O)NC1=O [Compound 3129] ({CH2CO}-[hArg]Y(Carboxymethyl)DWV[Bip]VK[dL]N[Cha]VSC[AEEA]K[Aun]-OH; thioether N-14) | 53.4
8 | CC(C)C[C@@H]1NC(=O)[C@H](Cc2c[nH]c3ccccc23)NC(=O)[C@H](CC(=O)O)NC(=O)[C@H](Cc2ccc(C(=O)O)cc2)NC(=O)[C@H](Cc2ccc(OCC(=O)O)cc2)NC(=O)CSC[C@@H](C(=O)NCCOCCOCC(=O)NCCCCCCCCCCC(=O)O)NC(=O)[C@H](CCCNC(=N)N)NC(=O)[C@H](C(C)C)NC(=O)[C@H](CC2CCCCC2)NC(=O)[C@H](CCN)NC(=O)[C@@H](CC(C)C)NC(=O)[C@H](CCCN)NC(=O)[C@H](Cc2ccc(O)cc2)NC(=O)[C@H](Cc2ccc(-c3ccccc3)cc2)NC1=O [Compound 1242] ({CH2CO}-Y(Carboxymethyl)[Phe(4-COOH)]DWL[Bip]Y[Orn][dL][Dab][Cha]VRC[AEEA][Aun]-OH; thioether N-14) | 33.3

Continued, values first:

Row | IC50 [nM] | SMILES
9 | 63.2 | Cc1cccc(C[C@@H]2NC(=O)[C@H](CC(=O)O)NC(=O)[C@H](Cc3ccc(O)cc3)NC(=O)[C@H](CC(N)=O)NC(=O)CSC[C@@H](C(=O)N[C@@H](CCN)C(=O)NCCCCCCCCCCC(=O)O)NC(=O)[C@H]([C@@H](C)O)NC(=O)[C@H](C(C)C)NC(=O)[C@H](CC3CCCCC3)NC(=O)[C@H](CCN)NC(=O)[C@@H](CC(C)C)NC(=O)[C@H](CCCN)NC(=O)[C@H](Cc3ccc(O)cc3)NC(=O)[C@H](Cc3ccc(-c4ccccc4)cc3)NC(=O)[C@H](C(C)C)NC2=O)c1 [Compound 2738] ({CH2CO}-NYD[Phe(3-Me)]V[Bip]Y[Orn][dL][Dab][Cha]VTC[Dab][Aun]-OH; thioether N-14)
10 | 3.5 | Cc1cccc(C[C@@H]2NC(=O)[C@H](CC(=O)O)NC(=O)[C@H](Cc3ccc(OCC(=O)O)cc3)NC(=O)[C@H](C)NC(=O)CSC[C@@H](C(=O)N[C@@H](CCN)C(=O)NCCOCCOCC(=O)NCCCCCCCCCCC(=O)O)NC(=O)[C@H](CO)NC(=O)[C@H](C(C)(C)O)NC(=O)[C@H](CC3CCCCC3)NC(=O)[C@H](CCN)NC(=O)[C@@H](CC(C)C)NC(=O)[C@H](CCCN)NC(=O)[C@H](Cc3ccc(C(=O)O)cc3)NC(=O)[C@H](Cc3ccc(-c4ccccc4)cc3)NC(=O)[C@H](Cc3ccc(C(=O)O)cc3)NC2=O)c1 [Compound 3769] ({CH2CO}-AY(Carboxymethyl)D[Phe(3-Me)][Phe(4-COOH)][Bip][Phe(4-COOH)][Orn][dL][Dab][Cha][Val(3-OH)]SC[Dab][AEEA][Aun]-OH; thioether N-14)
11 | 26.1 | Cc1cccc(C[C@@H]2NC(=O)[C@H](CC(=O)O)NC(=O)[C@H](Cc3ccc(OCC(=O)O)cc3)NC(=O)[C@H](CN)NC(=O)CSC[C@@H](C(=O)N[C@@H](CCN)C(=O)NCCCCCCCCCCC(=O)O)NC(=O)[C@H](CO)NC(=O)[C@H](C(C)C)NC(=O)[C@H](CC3CCCCC3)NC(=O)[C@H](CCN)NC(=O)[C@@H](CC(C)C)NC(=O)[C@H](CCCN)NC(=O)[C@H](Cc3ccc(O)cc3)NC(=O)[C@H](Cc3ccc(-c4ccccc4)cc3)NC(=O)[C@H](Cc3ccc(OCC(=O)O)cc3)NC2=O)c1 [Compound 2091] ({CH2CO}-[Dap]Y(Carboxymethyl)D[Phe(3-Me)]Y(Carboxymethyl)[Bip]Y[Orn][dL][Dab][Cha]VSC[Dab][Aun]-OH; thioether N-14)
12 | 207 | Cc1cccc(C[C@@H]2NC(=O)[C@H](CC(=O)O)NC(=O)[C@H](Cc3ccc(OCC(=O)O)cc3)NC(=O)[C@H](CN)NC(=O)CSC[C@@H](C(=O)NCCOCCOCC(=O)NCCCCCCCCCCC(=O)O)NC(=O)[C@H](CN)NC(=O)[C@H](Cc3ccc(O)cc3)NC(=O)[C@H](CC3CCCCC3)NC(=O)[C@H](CCN)NC(=O)[C@@H](CC(C)C)NC(=O)[C@H](CCCN)NC(=O)[C@H](Cc3ccc(O)cc3)NC(=O)[C@H](Cc3ccc(-c4ccccc4)cc3)NC(=O)[C@H](Cc3ccc(O)cc3)NC2=O)c1 [Compound 2518] ({CH2CO}-[Dap]Y(Carboxymethyl)D[Phe(3-Me)]Y[Bip]Y[Orn][dL][Dab][Cha]Y[Dap]C[AEEA][Aun]-OH; thioether N-14)
13 | 38.2 | Cc1cccc(C[C@@H]2NC(=O)[C@H](CC(=O)O)NC(=O)[C@H](Cc3ccc(OCC(=O)O)cc3)NC(=O)[C@H](CCN)NC(=O)CSC[C@@H](C(=O)N[C@@H](CCN)C(=O)NCCOCCOCC(=O)NCCOCCOCC(=O)NCCCCCCCCCCCCC(=O)O)NC(=O)[C@H](CCC(=O)O)NC(=O)[C@H](C(C)(C)O)NC(=O)[C@H](CC3CCCCC3)NC(=O)[C@H](Cc3c[nH]cn3)NC(=O)[C@@H](CC(C)C)NC(=O)[C@H](CCCN)NC(=O)[C@H](Cc3ccc(C(=O)O)cc3)NC(=O)[C@H](Cc3ccc(-c4ccccc4)cc3)NC(=O)[C@H](Cc3ccc(C(=O)O)cc3)NC2=O)c1 [Compound 2888] ({CH2CO}-[Dab]Y(Carboxymethyl)D[Phe(3-Me)][Phe(4-COOH)][Bip][Phe(4-COOH)][Orn][dL]H[Cha][Val(3-OH)]EC[Dab][AEEA][AEEA]-{NH(CH2)12COOH}; thioether N-14)
